Data set [1] concerns the target T1, Eukaryotic translation initiation factor 2-alpha kinase 3 (Homo sapiens, UniProt Q9NZJ5).
T1 sequence (Q9NZJ5 whole entry): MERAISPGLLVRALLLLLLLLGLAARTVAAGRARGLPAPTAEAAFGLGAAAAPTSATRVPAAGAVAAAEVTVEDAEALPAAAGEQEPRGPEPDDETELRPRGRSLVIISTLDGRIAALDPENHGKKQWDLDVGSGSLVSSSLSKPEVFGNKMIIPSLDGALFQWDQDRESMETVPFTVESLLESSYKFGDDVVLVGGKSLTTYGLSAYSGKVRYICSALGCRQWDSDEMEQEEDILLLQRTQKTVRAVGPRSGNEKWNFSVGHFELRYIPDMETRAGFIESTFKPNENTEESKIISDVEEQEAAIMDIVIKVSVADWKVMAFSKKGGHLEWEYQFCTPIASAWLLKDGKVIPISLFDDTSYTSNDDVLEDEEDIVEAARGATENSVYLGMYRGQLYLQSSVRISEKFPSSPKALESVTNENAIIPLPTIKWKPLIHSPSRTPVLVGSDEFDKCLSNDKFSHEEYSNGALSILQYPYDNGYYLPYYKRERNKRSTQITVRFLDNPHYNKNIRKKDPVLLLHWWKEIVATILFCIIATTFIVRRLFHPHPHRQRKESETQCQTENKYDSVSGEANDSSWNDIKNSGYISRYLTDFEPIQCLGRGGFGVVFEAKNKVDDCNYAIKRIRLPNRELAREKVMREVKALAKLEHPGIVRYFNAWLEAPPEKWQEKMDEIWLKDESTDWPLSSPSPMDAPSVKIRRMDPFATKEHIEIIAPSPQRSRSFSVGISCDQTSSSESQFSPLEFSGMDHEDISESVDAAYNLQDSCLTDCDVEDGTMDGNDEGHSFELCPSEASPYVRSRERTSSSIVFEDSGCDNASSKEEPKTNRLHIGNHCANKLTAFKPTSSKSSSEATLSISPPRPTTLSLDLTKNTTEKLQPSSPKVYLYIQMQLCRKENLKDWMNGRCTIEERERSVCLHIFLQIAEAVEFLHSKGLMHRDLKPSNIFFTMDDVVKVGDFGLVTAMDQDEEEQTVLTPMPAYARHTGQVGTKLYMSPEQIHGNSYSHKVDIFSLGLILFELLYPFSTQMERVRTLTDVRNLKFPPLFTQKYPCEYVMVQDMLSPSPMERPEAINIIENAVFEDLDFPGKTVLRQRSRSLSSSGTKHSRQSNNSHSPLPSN
The experiment in a line: Inhibition of human His-tagged PERK expressed in Escherichia coli assessed as eIF2alpha phosphorylation by TR-FRET assay.

Data set [2] concerns the target Mast/stem cell growth factor receptor Kit (Homo sapiens) (UniProt P10721). In words: Inhibition of wild-type human partial length KIT (I571 to D952 residues) expressed in bacterial expression system assessed as residual activity at 10 uM by Kinomescan method relative to control.
Data set [3] is described as follows: Apparent permeability of the compound across apical to basolateral side in human Caco-2 cells. As to conditions: read-out: permeability. Type of data set: ADME, cell-based.
The nature of data set [4]: Plasma protein binding in mouse. Type of data set: ADME, cell-free. The conditions noted are these: read-out: PPB (converted).
The test system of data set [5] is 786-0. The experiment in a line: Anticancer activity against human 786-0 cells xenografted in clear cell renal cell carcinoma mouse model assessed as tumor growth inhibition at 10 mg/kg measured at day 28 relative to control. Type of data set: functional. As to conditions: 786-0, 672 h, read-out: TGI.
Data set [6] concerns the target T2, Mitogen-activated protein kinase 12 (Homo sapiens) (UniProt P53778).
T2 sequence (whole entry): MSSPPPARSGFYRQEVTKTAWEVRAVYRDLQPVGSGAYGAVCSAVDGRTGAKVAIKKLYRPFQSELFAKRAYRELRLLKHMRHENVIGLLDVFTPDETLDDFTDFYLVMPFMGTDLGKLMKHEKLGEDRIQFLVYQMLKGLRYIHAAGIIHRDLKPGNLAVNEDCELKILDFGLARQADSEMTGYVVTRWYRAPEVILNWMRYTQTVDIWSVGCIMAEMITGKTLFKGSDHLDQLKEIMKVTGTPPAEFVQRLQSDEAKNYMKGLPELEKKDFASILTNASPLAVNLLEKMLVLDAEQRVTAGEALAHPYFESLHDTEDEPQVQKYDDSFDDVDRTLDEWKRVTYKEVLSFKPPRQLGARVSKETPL
In words: Inhibition of wild-type human full length p38-gamma (M1 to L367 residues) expressed in mammalian expression system assessed as residual activity at 10 uM by Kinomescan method relative to control.

Data set [7] in a line: Half life in dog hepatocytes. Type of data set: ADME, cell-based, Canis lupus familiaris, Hepatocyte.
Data set [8] addresses Angiopoietin-1 receptor (Homo sapiens) (UniProt Q02763). In words: Inhibition of wild-type human partial length TIE2 (N804 to T1112 residues) expressed in bacterial expression system assessed as residual activity at 10 uM by Kinomescan method relative to control.
A short description of data set [9]: Half life in mouse at 10 mg/kg, po. The conditions noted are these: in vivo. Type of data set: ADME, organism-based.
In data set [10] the target is Tyrosine-protein kinase receptor UFO (Homo sapiens) (UniProt P30530). The experiment in a line: Inhibition of wild-type human partial length AXL (R497 to Y821 residues) expressed in bacterial expression system assessed as residual activity at 10 uM by Kinomescan method relative to control.
Sequence of Tyrosine-protein kinase receptor UFO (Homo sapiens) (P30530 whole entry, the tested form may be a part): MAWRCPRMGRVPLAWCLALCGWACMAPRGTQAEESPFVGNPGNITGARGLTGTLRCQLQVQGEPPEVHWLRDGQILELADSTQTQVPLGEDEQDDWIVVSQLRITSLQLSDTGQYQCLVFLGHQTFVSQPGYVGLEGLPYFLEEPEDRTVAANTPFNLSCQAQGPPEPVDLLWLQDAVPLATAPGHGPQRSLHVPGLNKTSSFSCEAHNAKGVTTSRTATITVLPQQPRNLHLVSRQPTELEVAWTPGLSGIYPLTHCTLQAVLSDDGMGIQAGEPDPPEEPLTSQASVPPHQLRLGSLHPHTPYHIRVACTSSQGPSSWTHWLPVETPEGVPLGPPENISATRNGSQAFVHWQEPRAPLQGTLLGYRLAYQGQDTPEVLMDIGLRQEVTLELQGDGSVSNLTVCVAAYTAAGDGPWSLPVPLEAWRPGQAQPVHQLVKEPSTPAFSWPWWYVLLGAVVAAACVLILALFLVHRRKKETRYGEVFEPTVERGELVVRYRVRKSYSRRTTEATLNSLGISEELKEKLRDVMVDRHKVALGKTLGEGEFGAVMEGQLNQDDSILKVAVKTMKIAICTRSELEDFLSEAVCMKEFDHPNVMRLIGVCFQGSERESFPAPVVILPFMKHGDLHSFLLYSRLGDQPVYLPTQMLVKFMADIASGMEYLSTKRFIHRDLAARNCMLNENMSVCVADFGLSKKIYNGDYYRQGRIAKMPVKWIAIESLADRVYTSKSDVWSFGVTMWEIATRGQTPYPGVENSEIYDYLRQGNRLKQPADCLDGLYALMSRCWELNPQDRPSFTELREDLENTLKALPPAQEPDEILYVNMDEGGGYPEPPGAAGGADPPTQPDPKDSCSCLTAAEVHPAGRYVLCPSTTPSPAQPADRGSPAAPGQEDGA
Data set [11] in a line: Half life in mouse hepatocytes. Format: ADME, cell-based, Hepatocyte.
A short description of data set [12]: Half life in rat hepatocytes. Format: ADME, cell-based, Hepatocyte.
Data set [13] in a line: Plasma protein binding in human. Type of data set: ADME, cell-free. As to conditions: read-out: PPB (converted).
The nature of data set [14]: Aqueous solubility of the compound. Type of data set: physicochemical. The conditions noted are these: buffer.
The target in data set [15] is Proto-oncogene tyrosine-protein kinase Src (Homo sapiens) (UniProt P12931). The experiment in a line: Inhibition of wild-type human partial length SRC (L240 to L536 residues) expressed in bacterial expression system assessed as residual activity at 10 uM by Kinomescan method relative to control.
A short description of data set [16]: Half life in human hepatocytes. Format: ADME, cell-based, Hepatocyte.
The nature of data set [17]: Efflux ratio of apparent permeability in human Caco-2 cells. Format: ADME, cell-based.
Data set [18] addresses Platelet-derived growth factor receptor beta (Homo sapiens) (UniProt P09619). In words: Inhibition of wild-type human partial length PDGFRbeta (V582 to Y1009 residues) expressed in bacterial expression system assessed as residual activity at 10 uM by Kinomescan method relative to control.
Data set [19] in a line: AUC (0 to last) in mouse at 10 mg/kg, po. Type of data set: ADME, organism-based. Details: time 0 - last, route oral, dose 10 mg/kg. As to conditions: in vivo.
For data set [20], the target named is Macrophage colony-stimulating factor 1 receptor (Homo sapiens) (UniProt P07333). In words: Inhibition of wild-type human partial length CSF1R (I564 to S939 residues) expressed in bacterial expression system assessed as residual activity at 10 uM by Kinomescan method relative to control.
Sequence of Macrophage colony-stimulating factor 1 receptor (Homo sapiens) (P07333 whole entry, the tested form may be a part): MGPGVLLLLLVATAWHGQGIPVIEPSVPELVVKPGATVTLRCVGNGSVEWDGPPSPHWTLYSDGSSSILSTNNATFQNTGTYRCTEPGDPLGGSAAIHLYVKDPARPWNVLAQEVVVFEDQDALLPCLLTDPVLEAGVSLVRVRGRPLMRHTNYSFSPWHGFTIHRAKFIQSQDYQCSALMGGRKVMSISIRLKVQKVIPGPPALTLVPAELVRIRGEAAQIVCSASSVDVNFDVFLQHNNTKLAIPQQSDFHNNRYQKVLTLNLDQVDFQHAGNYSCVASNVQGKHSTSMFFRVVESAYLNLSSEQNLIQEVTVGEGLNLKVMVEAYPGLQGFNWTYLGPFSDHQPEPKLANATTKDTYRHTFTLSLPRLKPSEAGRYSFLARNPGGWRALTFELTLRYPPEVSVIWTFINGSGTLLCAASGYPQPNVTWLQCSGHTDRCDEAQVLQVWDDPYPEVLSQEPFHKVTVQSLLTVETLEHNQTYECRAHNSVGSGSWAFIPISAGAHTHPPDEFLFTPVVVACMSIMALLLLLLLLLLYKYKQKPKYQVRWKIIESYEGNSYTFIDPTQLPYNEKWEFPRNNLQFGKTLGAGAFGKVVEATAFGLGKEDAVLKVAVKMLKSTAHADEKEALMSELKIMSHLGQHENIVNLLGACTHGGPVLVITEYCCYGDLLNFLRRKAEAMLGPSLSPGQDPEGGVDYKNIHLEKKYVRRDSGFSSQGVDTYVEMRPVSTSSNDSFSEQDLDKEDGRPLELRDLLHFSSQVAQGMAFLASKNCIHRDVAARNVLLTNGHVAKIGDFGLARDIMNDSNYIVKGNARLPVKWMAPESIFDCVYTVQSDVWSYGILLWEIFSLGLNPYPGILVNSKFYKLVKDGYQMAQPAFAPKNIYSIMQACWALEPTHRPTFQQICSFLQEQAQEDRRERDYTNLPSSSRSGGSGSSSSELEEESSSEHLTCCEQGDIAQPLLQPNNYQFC
Data set [21] deals with Aurora kinase B (Homo sapiens) (UniProt Q96GD4). In words: Inhibition of wild-type human partial length AURKB (D25 to A303 residues) expressed in mammalian expression system assessed as residual activity at 10 uM by Kinomescan method relative to control.
Data set [22] relates to Tyrosine-protein kinase ABL1 (Homo sapiens), P00519 [F317L]. In words: Inhibition of human non-phosphorylated ABL1 F317L mutant (S229 to K512 residues) expressed in mammalian expression system assessed as residual activity at 10 uM by Kinomescan method relative to control.

Converted amounts (≈) assume the structure as drawn.

Sequence of Mast/stem cell growth factor receptor Kit (Homo sapiens) (P10721 whole entry, the tested form may be a part): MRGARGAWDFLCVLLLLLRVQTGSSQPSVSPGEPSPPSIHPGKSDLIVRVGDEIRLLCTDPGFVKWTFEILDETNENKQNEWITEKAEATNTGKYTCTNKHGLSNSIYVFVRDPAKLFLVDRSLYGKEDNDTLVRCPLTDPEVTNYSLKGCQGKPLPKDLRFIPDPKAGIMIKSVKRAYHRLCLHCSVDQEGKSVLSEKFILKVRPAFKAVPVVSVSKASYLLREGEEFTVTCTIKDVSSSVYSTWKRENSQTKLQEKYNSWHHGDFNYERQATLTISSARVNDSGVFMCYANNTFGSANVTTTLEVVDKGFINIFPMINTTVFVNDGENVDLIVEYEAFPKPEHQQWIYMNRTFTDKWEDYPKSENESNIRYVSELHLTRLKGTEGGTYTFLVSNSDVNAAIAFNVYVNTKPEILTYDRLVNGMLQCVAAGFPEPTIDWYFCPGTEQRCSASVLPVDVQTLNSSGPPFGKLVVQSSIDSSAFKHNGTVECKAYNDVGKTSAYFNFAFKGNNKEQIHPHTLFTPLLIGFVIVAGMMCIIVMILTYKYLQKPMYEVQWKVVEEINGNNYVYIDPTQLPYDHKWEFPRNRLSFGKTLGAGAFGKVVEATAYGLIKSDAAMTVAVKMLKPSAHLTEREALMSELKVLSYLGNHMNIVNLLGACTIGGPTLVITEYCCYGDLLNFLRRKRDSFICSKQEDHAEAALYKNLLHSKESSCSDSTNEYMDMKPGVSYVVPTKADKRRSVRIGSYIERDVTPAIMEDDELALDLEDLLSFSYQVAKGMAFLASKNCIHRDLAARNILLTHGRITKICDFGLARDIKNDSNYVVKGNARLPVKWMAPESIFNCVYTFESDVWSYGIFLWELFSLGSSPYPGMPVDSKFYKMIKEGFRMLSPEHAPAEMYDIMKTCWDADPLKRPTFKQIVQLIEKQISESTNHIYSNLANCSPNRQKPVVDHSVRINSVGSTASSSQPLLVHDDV
Sequence of Angiopoietin-1 receptor (Homo sapiens) (Q02763 whole entry, the tested form may be a part): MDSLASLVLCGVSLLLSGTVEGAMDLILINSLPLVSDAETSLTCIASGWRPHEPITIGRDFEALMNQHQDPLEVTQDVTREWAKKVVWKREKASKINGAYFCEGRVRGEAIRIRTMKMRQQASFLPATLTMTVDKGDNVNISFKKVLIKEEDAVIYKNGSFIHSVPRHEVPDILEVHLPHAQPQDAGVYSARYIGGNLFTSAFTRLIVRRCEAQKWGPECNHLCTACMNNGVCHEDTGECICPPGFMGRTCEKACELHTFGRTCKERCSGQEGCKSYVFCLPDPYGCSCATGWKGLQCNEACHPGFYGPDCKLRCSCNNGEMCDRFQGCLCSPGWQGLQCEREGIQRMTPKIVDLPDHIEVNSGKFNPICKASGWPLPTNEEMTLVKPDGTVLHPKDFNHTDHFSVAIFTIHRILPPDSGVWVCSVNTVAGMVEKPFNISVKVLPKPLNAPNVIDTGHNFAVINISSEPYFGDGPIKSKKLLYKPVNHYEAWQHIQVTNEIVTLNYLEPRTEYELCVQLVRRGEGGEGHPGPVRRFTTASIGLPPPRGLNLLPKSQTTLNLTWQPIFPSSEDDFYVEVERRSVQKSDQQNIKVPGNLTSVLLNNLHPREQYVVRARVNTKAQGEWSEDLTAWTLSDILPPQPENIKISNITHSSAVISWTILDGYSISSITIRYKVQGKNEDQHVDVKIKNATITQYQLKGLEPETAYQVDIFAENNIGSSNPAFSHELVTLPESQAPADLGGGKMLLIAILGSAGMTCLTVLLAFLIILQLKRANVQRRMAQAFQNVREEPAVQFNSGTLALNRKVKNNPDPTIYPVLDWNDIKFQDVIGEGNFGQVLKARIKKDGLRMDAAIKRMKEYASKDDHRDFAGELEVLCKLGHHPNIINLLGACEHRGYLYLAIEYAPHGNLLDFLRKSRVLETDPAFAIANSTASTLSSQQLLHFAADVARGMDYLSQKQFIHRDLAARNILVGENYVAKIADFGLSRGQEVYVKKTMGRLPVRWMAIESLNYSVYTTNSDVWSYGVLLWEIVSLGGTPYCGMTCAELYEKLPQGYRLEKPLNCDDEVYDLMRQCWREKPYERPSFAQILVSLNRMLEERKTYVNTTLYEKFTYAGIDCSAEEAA
Sequence of Platelet-derived growth factor receptor beta (Homo sapiens) (P09619 whole entry, the tested form may be a part): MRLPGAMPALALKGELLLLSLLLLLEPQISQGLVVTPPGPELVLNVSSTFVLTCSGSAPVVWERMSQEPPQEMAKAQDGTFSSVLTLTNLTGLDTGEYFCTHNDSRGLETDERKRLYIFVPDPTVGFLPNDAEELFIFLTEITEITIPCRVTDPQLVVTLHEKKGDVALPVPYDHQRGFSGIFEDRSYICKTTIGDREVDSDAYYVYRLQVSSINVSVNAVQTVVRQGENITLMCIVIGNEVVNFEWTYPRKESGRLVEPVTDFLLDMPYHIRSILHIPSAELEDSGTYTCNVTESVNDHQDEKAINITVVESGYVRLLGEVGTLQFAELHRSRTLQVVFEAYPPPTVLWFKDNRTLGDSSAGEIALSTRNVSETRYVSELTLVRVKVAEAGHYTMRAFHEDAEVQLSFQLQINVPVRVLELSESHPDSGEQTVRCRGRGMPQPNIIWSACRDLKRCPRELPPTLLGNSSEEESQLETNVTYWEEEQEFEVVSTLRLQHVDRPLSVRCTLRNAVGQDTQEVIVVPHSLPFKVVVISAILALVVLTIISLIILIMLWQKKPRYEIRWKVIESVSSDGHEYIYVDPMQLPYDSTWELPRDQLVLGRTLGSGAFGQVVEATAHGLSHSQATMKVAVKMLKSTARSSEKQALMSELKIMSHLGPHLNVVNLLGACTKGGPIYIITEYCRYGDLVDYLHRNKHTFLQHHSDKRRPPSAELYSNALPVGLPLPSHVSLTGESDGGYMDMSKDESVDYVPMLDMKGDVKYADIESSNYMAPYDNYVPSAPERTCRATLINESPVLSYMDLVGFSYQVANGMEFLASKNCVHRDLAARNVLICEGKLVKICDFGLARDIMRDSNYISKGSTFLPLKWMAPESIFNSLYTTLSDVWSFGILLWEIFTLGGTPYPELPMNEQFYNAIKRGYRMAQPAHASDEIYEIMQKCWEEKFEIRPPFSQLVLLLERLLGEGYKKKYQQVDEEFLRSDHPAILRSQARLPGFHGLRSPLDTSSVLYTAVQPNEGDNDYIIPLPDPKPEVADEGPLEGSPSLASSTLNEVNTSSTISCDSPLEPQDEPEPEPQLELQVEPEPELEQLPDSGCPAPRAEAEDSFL

With `CCc1cc(NC(=O)[C@H](O)c2cc(F)cc(F)c2)ccc1-c1cnc(N)c(C(=O)NC(C)C)c1`, the IC50 in data set [1] is 2 nM. Also, the Activity in data set [2] amounted to 67%; in data set [6], 87%; in [8], 85%; in [10], 70%; in data set [15] it was 97%; in [18], 60%. In addition, the Activity in data set [20] amounted to 74%; in data set [21], 75%; in data set [22], 100%. The Papp A→B in [3] was 22 ×10⁻⁶ cm/s. The values for the fraction unbound in data set [4] and in [13] were 0.006 and 0.003, respectively. In addition, the inhibition in vivo at 10 mg/kg in data set [5] came out at 40%. For the same compound, the half-life is 8.22 h in data set [7]; 2 h in data set [9]; 1.05 h in [11]; 0.233 h in [12]; 5.17 h in data set [16]. In [14], this compound registered a solubility of 10 µM (≈ 4.69 µg/mL). The efflux ratio in data set [17] was found to be 2.3. For the same compound, in [19], the AUC(0-t) came to 5150 ng·h/mL.

Values taken from ChEMBL document CHEMBL4819104, “Discovery of 2-amino-3-amido-5-aryl-pyridines as highly potent, orally bioavailable, and efficacious PERK kinase inhibitors” (Bioorg Med Chem Lett, 2021).
